Laboratory results: the NIST ThermoML archive (doi:10.1021/je030226s)
Numbers after ± are expanded uncertainties.

Key:
[1] = refractive index (Na D-line) (dimensionless); xn = mol fraction of the nth substance listed; details: 101.32 kPa, Liquid
[2] = xn = mol fraction of the nth substance listed; details: 101.32 kPa, Liquid
[3] = refractive index (Na D-line) (dimensionless); details: 101.33 kPa, Liquid
[4] = 101.32 kPa, Liquid

CCCCCl [1-chlorobutane] + CO
Details	mass density, 288.15 K [kg/m3]	mass density, 298.15 K [kg/m3]	mass density, 308.15 K [kg/m3]	refractive index, 288.15 K	refractive index, 298.15 K	refractive index, 308.15 K	viscosity, 288.15 K [mPa·s]	viscosity, 298.15 K [mPa·s]	viscosity, 308.15 K [mPa·s]
[1], x2 = 0	–	–	–	1.4045 ± 0.0006	1.3993 ± 0.0006	1.3941 ± 0.0006	–	–	–
[1], x2 = 0.05	–	–	–	1.4032 ± 0.0006	1.398 ± 0.0006	1.3928 ± 0.0006	–	–	–
[1], x2 = 0.1	–	–	–	1.4015 ± 0.0006	1.3964 ± 0.0006	1.3912 ± 0.0006	–	–	–
[1], x2 = 0.2	–	–	–	1.3978 ± 0.0006	1.3927 ± 0.0006	1.3877 ± 0.0006	–	–	–
[1], x2 = 0.3	–	–	–	1.3936 ± 0.0006	1.3885 ± 0.0006	1.3834 ± 0.0006	–	–	–
[1], x2 = 0.4	–	–	–	1.3885 ± 0.0006	1.3835 ± 0.0006	1.3785 ± 0.0006	–	–	–
[1], x2 = 0.5	–	–	–	1.3827 ± 0.0006	1.3778 ± 0.0006	1.3728 ± 0.0006	–	–	–
[1], x2 = 0.6	–	–	–	1.3759 ± 0.0006	1.371 ± 0.0006	1.366 ± 0.0006	–	–	–
[1], x2 = 0.7	–	–	–	1.3679 ± 0.0006	1.3628 ± 0.0006	1.3579 ± 0.0006	–	–	–
[1], x2 = 0.8	–	–	–	1.3579 ± 0.0006	1.3529 ± 0.0006	1.3478 ± 0.0006	–	–	–
[1], x2 = 0.9	–	–	–	1.3457 ± 0.0006	1.3413 ± 0.0006	1.3365 ± 0.0006	–	–	–
[1], x2 = 0.95	–	–	–	1.3384 ± 0.0006	1.3342 ± 0.0006	1.3298 ± 0.0006	–	–	–
[2], x2 = 0	892.2 ± 0.6	881 ± 0.7	869.7 ± 0.7	–	–	–	0.472 ± 0.009	0.423 ± 0.008	0.382 ± 0.008
[2], x2 = 0.05	889.6 ± 0.6	878.4 ± 0.7	867.1 ± 0.7	–	–	–	0.463 ± 0.009	0.416 ± 0.008	0.375 ± 0.008
[2], x2 = 0.1	887.2 ± 0.6	876.1 ± 0.7	864.7 ± 0.7	–	–	–	0.462 ± 0.009	0.413 ± 0.008	0.374 ± 0.008
[2], x2 = 0.2	882.4 ± 0.7	871.2 ± 0.7	859.9 ± 0.7	–	–	–	0.465 ± 0.009	0.412 ± 0.008	0.376 ± 0.008
[2], x2 = 0.3	876.9 ± 0.7	865.6 ± 0.7	854.5 ± 0.7	–	–	–	0.478 ± 0.009	0.421 ± 0.008	0.382 ± 0.008
[2], x2 = 0.4	870.6 ± 0.7	859.6 ± 0.7	848.4 ± 0.8	–	–	–	0.496 ± 0.009	0.435 ± 0.008	0.393 ± 0.008
[2], x2 = 0.5	863.3 ± 0.7	852.4 ± 0.7	841.3 ± 0.8	–	–	–	0.516 ± 0.009	0.45 ± 0.008	0.407 ± 0.008
[2], x2 = 0.6	854.6 ± 0.7	843.9 ± 0.8	833 ± 0.8	–	–	–	0.536 ± 0.009	0.469 ± 0.009	0.416 ± 0.008
[2], x2 = 0.7	844.2 ± 0.8	833.7 ± 0.8	823.1 ± 0.8	–	–	–	0.559 ± 0.009	0.489 ± 0.009	0.431 ± 0.008
[2], x2 = 0.8	831.7 ± 0.8	821.4 ± 0.8	811 ± 0.9	–	–	–	0.581 ± 0.009	0.506 ± 0.009	0.445 ± 0.008
[2], x2 = 0.9	815.9 ± 0.9	806 ± 0.9	796 ± 0.9	–	–	–	0.601 ± 0.01	0.521 ± 0.009	0.457 ± 0.009
[2], x2 = 0.95	806.6 ± 0.9	796.9 ± 0.9	787.2 ± 0.9	–	–	–	0.613 ± 0.01	0.532 ± 0.009	0.467 ± 0.009

CCCCO [butan-1-ol]
Details	mass density, 288.15 K [kg/m3]	mass density, 298.15 K [kg/m3]	mass density, 308.15 K [kg/m3]	refractive index, 288.15 K	refractive index, 298.15 K	refractive index, 308.15 K	viscosity, 288.15 K [mPa·s]	viscosity, 298.15 K [mPa·s]	viscosity, 308.15 K [mPa·s]
[3]	–	–	–	1.401 ± 0.0006	1.3972 ± 0.0006	1.3932 ± 0.0006	–	–	–
[4]	813.5 ± 0.9	805.9 ± 0.9	798.2 ± 0.9	–	–	–	3.394 ± 0.039	2.598 ± 0.03	2.019 ± 0.024

CCCCO [butan-1-ol] + CCCCCl
x1 = 1
Details	mass density, 288.15 K [kg/m3]	mass density, 298.15 K [kg/m3]	mass density, 308.15 K [kg/m3]	refractive index, 288.15 K	refractive index, 298.15 K	refractive index, 308.15 K	viscosity, 288.15 K [mPa·s]	viscosity, 298.15 K [mPa·s]	viscosity, 308.15 K [mPa·s]
[1]	–	–	–	1.401 ± 0.0006	1.3972 ± 0.0006	1.3932 ± 0.0006	–	–	–
[2]	813.5 ± 0.9	805.9 ± 0.9	798.2 ± 0.9	–	–	–	3.394 ± 0.039	2.598 ± 0.03	2.019 ± 0.024

CCO [ethanol]
Details	mass density, 288.15 K [kg/m3]	mass density, 298.15 K [kg/m3]	mass density, 308.15 K [kg/m3]	refractive index, 288.15 K	refractive index, 298.15 K	refractive index, 308.15 K	viscosity, 288.15 K [mPa·s]	viscosity, 298.15 K [mPa·s]	viscosity, 308.15 K [mPa·s]
[3]	–	–	–	1.363 ± 0.0006	1.3591 ± 0.0006	1.355 ± 0.0006	–	–	–
[4]	793.8 ± 0.9	785.2 ± 0.9	776.6 ± 1	–	–	–	1.317 ± 0.016	1.085 ± 0.014	0.902 ± 0.012

CCO [ethanol] + CCCCCl
x1 = 1
Details	mass density, 288.15 K [kg/m3]	mass density, 298.15 K [kg/m3]	mass density, 308.15 K [kg/m3]	refractive index, 288.15 K	refractive index, 298.15 K	refractive index, 308.15 K	viscosity, 288.15 K [mPa·s]	viscosity, 298.15 K [mPa·s]	viscosity, 308.15 K [mPa·s]
[1]	–	–	–	1.363 ± 0.0006	1.3591 ± 0.0006	1.355 ± 0.0006	–	–	–
[2]	793.8 ± 0.9	785.2 ± 0.9	776.6 ± 1	–	–	–	1.317 ± 0.016	1.085 ± 0.014	0.902 ± 0.012

CO [methanol]
Details	mass density, 288.15 K [kg/m3]	mass density, 298.15 K [kg/m3]	mass density, 308.15 K [kg/m3]	refractive index, 288.15 K	refractive index, 298.15 K	refractive index, 308.15 K	viscosity, 288.15 K [mPa·s]	viscosity, 298.15 K [mPa·s]	viscosity, 308.15 K [mPa·s]
[3]	–	–	–	1.3303 ± 0.0006	1.3275 ± 0.0006	1.3254 ± 0.0006	–	–	–
[4]	796.1 ± 0.9	786.6 ± 0.9	777.2 ± 1	–	–	–	0.627 ± 0.01	0.543 ± 0.009	0.473 ± 0.009

CO [methanol] + CCCCCl
x1 = 1
Details	mass density, 288.15 K [kg/m3]	mass density, 298.15 K [kg/m3]	mass density, 308.15 K [kg/m3]	refractive index, 288.15 K	refractive index, 298.15 K	refractive index, 308.15 K	viscosity, 288.15 K [mPa·s]	viscosity, 298.15 K [mPa·s]	viscosity, 308.15 K [mPa·s]
[1]	–	–	–	1.3303 ± 0.0006	1.3275 ± 0.0006	1.3254 ± 0.0006	–	–	–
[2]	796.1 ± 0.9	786.6 ± 0.9	777.2 ± 1	–	–	–	0.627 ± 0.01	0.543 ± 0.009	0.473 ± 0.009

CCCO [propan-1-ol]
Details	mass density, 288.15 K [kg/m3]	mass density, 298.15 K [kg/m3]	mass density, 308.15 K [kg/m3]	refractive index, 288.15 K	refractive index, 298.15 K	refractive index, 308.15 K	viscosity, 288.15 K [mPa·s]	viscosity, 298.15 K [mPa·s]	viscosity, 308.15 K [mPa·s]
[3]	–	–	–	1.3869 ± 0.0006	1.3829 ± 0.0006	1.3789 ± 0.0006	–	–	–
[4]	807.6 ± 0.9	799.6 ± 0.9	791.5 ± 0.9	–	–	–	2.504 ± 0.029	1.958 ± 0.023	1.548 ± 0.019

CCCO [propan-1-ol] + CCCCCl
x1 = 1
Details	mass density, 288.15 K [kg/m3]	mass density, 298.15 K [kg/m3]	mass density, 308.15 K [kg/m3]	refractive index, 288.15 K	refractive index, 298.15 K	refractive index, 308.15 K	viscosity, 288.15 K [mPa·s]	viscosity, 298.15 K [mPa·s]	viscosity, 308.15 K [mPa·s]
[1]	–	–	–	1.3869 ± 0.0006	1.3829 ± 0.0006	1.3789 ± 0.0006	–	–	–
[2]	807.6 ± 0.9	799.6 ± 0.9	791.5 ± 0.9	–	–	–	2.504 ± 0.029	1.958 ± 0.023	1.548 ± 0.019
